According to PubChem BioAssay AID328 (DTP/NCI, 2004):
“And” between values parts separate entries of the source, which are not always exact repeats. Identical values can stand only once. Inconclusive results and toxic doses are left out.

Test system: BDF1 mice, P388 leukemia ip, median survival T/C
Assay: NCI In Vivo Anticancer Drug Screen. Data for tumor model P388 Leukemia (intraperitoneal) in B6D2F1 (BDF1) mice
Conditions: endpoint: median survival time, higher = longer survival
In short: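 T/C = treated-group survival ÷ vehicle-control survival; tumour transplanted into mice before dosing.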

[1] = dose: 100.0 mg/kg/injection, schedule: Q01DX009 (ip), vehicle: saline
[2] = dose: 200.0 mg/kg/injection, schedule: Q01DX009 (ip), vehicle: saline
[3] = dose: 50.0 mg/kg/injection, schedule: Q01DX009 (ip), vehicle: saline with Tween-80
[4] = dose: 100.0 mg/kg/injection, schedule: Q01DX009 (ip), vehicle: saline with Tween-80
[5] = dose: 100.0 mg/kg/injection, schedule: Q04DX003 (ip), vehicle: saline with Tween-80
[6] = dose: 200.0 mg/kg/injection, schedule: Q04DX003 (ip), vehicle: saline with Tween-80
[7] = dose: 400.0 mg/kg/injection, schedule: Q04DX003 (ip), vehicle: saline with Tween-80
[8] = dose: 200.0 mg/kg/injection, schedule: Q01DX009 (ip), vehicle: saline with Tween-80
[9] = dose: 400.0 mg/kg/injection, schedule: Q01DX009 (ip), vehicle: saline with Tween-80

## COC1(OC)C2(Cl)CC(=O)C3CC(=O)C3C1(Cl)C(Cl)=C2Cl (stereo unspecified)
dose: 100.0 mg/kg/injection, schedule: Q01DX001 (ip), vehicle: Klucel (hydroxypropylcellulose) (HPC)
  T/C: 103 % of control
dose: 200.0 mg/kg/injection, schedule: Q01DX001 (ip), vehicle: Klucel (hydroxypropylcellulose) (HPC)
  T/C: 107 % of control
dose: 400.0 mg/kg/injection, schedule: Q01DX001 (ip), vehicle: Klucel (hydroxypropylcellulose) (HPC)
  T/C: 96 % of control

## COCC(O)CC#N (stereo unspecified)
[1]
  T/C: 100 % of control
dose: 100.0 mg/kg/injection, schedule: Q04DX003 (ip), vehicle: saline
  T/C: 95 % of control
[2]
  T/C: 87 % of control
dose: 200.0 mg/kg/injection, schedule: Q04DX003 (ip), vehicle: saline
  T/C: 95 % of control
dose: 400.0 mg/kg/injection, schedule: Q01DX009 (ip), vehicle: saline
  T/C: 95 % of control
dose: 400.0 mg/kg/injection, schedule: Q04DX003 (ip), vehicle: saline
  T/C: 100 % of control

## CCOc1ccn(CC(=O)c2ccc([N+](=O)[O-])o2)c(=O)n1
[3]
  T/C: 100 % of control
[4]
  T/C: 101 % of control

## NC(Cc1ccc(O)cc1)C(=O)OCc1ccccc1 (stereo unspecified)
[5]
  T/C: 104 % of control
[6]
  T/C: 104 % of control
[7]
  T/C: 100 % of control

## C[C@]12CCCC[C@@H]1CC[C@@H]1[C@@H]2[C@@H](O)C[C@]2(C)[C@@H](O)CC[C@@H]12
[3]
  T/C: 95 % of control and 100 % of control
dose: 50.0 mg/kg/injection, schedule: Q04DX003 (ip), vehicle: saline with Tween-80
  T/C: 100 % of control
dose: 66.0 mg/kg/injection, schedule: Q04DX003 (ip), vehicle: saline with Tween-80
  T/C: 95 % of control
[4]
  T/C: 95 % of control and 100 % of control
[5]
  T/C: 122 % of control
dose: 150.0 mg/kg/injection, schedule: Q04DX003 (ip), vehicle: saline with Tween-80
  T/C: 90 % of control
[8]
  T/C: 90 % of control and 100 % of control
[6]
  T/C: 100 % of control

## Cn1c[n+](C)ccc1=O
dose: 100.0 mg/kg/injection, schedule: Q01DX009 (ip), vehicle: water
  T/C: 97 % of control
dose: 100.0 mg/kg/injection, schedule: Q04DX003 (ip), vehicle: water
  T/C: 91 % of control
dose: 200.0 mg/kg/injection, schedule: Q01DX009 (ip), vehicle: water
  T/C: 107 % of control
dose: 200.0 mg/kg/injection, schedule: Q04DX003 (ip), vehicle: water
  T/C: 88 % of control
dose: 400.0 mg/kg/injection, schedule: Q01DX009 (ip), vehicle: water
  T/C: 97 % of control
dose: 400.0 mg/kg/injection, schedule: Q04DX003 (ip), vehicle: water
  T/C: 89 % of control

## Clc1ncnc2nc[nH]c12
dose: 7.5 mg/kg/injection, schedule: Q01DX010 (ip), vehicle: saline
  T/C: 92 % of control and 118 % of control
dose: 15.0 mg/kg/injection, schedule: Q01DX010 (ip), vehicle: saline
  T/C: 92 % of control and 122 % of control
dose: 30.0 mg/kg/injection, schedule: Q01DX010 (ip), vehicle: saline
  T/C: 100 % of control
dose: 60.0 mg/kg/injection, schedule: Q01DX010 (ip), vehicle: saline
  T/C: 100 % of control

## CC(=O)OCC(=O)[C@@]1(O)CC[C@H]2[C@@H]3C=C(C)C4=CC(=O)CC[C@]4(C)[C@H]3[C@@H](O)C[C@@]21C
[4]
  T/C: 108 % of control
[5]
  T/C: 95 % of control
[8]
  T/C: 91 % of control
[6]
  T/C: 95 % of control
[9]
  T/C: 108 % of control
[7]
  T/C: 95 % of control

## C=CCNC(=S)Nc1ccc(C)cc1
dose: 50.0 mg/kg/injection, schedule: Q04DX003 (ip), vehicle: Klucel (hydroxypropylcellulose) (HPC)
  T/C: 112 % of control
dose: 100.0 mg/kg/injection, schedule: Q04DX003 (ip), vehicle: Klucel (hydroxypropylcellulose) (HPC)
  T/C: 104 % of control
dose: 200.0 mg/kg/injection, schedule: Q04DX003 (ip), vehicle: Klucel (hydroxypropylcellulose) (HPC)
  T/C: 91 % of control

## CC(C)CCCCCCCCOC(=O)c1ccccc1C(=O)OCCCCCCCCC(C)C
[5]
  T/C: 109 % of control
[6]
  T/C: 109 % of control
[7]
  T/C: 104 % of control

## C[C@@H]1CC2=CC(=O)CC[C@]2(C)[C@H]2CC[C@]3(C)[C@@H](O)CC[C@H]3[C@H]12
[4]
  T/C: 100 % of control
[5]
  T/C: 100 % of control
[8]
  T/C: 95 % of control
[6]
  T/C: 109 % of control
[9]
  T/C: 90 % of control
[7]
  T/C: 95 % of control

## COC(=O)[C@@H]1c2cc3c(c(O)c2[C@@H](OC2OC(C)C(OC)C(C)(OC)C2OC)C[C@]1(C)O)C(=O)c1c(O)cc2c(c1C3=O)O[C@H]1O[C@]2(C)[C@H](O)[C@@H](N(C)C)[C@@H]1O (stereo partly specified)
dose: 0.13 mg/kg/injection, schedule: Q01DX010 (ip), vehicle: saline
  T/C: 113 % of control
dose: 0.19 mg/kg/injection, schedule: Q01DX010 (ip), vehicle: saline
  T/C: 154 % of control
dose: 0.25 mg/kg/injection, schedule: Q01DX009 (sc), vehicle: saline
  T/C: 100 % of control
dose: 0.25 mg/kg/injection, schedule: Q01DX010 (ip), vehicle: saline
  T/C: 109 % of control
dose: 0.38 mg/kg/injection, schedule: Q01DX010 (ip), vehicle: saline
  T/C: 150 % of control
dose: 0.5 mg/kg/injection, schedule: Q01DX009 (sc), vehicle: saline
  T/C: 100 % of control
dose: 0.75 mg/kg/injection, schedule: Q01DX001 (sc), vehicle: saline
  T/C: 100 % of control
dose: 1.0 mg/kg/injection, schedule: Q01DX009 (ip), vehicle: saline
  T/C: 109 % of control
dose: 1.0 mg/kg/injection, schedule: Q01DX009 (sc), vehicle: saline
  T/C: 100 % of control
dose: 1.0 mg/kg/injection, schedule: Q01DX010 (ip), vehicle: saline
  T/C: 155 % of control
dose: 1.5 mg/kg/injection, schedule: Q01DX001 (sc), vehicle: saline
  T/C: 100 % of control
dose: 2.0 mg/kg/injection, schedule: Q01DX009 (ip), vehicle: saline
  T/C: 100 % of control
dose: 2.0 mg/kg/injection, schedule: Q01DX009 (oral), vehicle: saline
  T/C: 100 % of control
dose: 2.0 mg/kg/injection, schedule: Q01DX009 (sc), vehicle: saline
  T/C: 100 % of control
dose: 2.16 mg/kg/injection, schedule: Q04DX003 (ip), vehicle: water
  T/C: 95 % of control
dose: 3.0 mg/kg/injection, schedule: Q01DX001 (sc), vehicle: saline
  T/C: 100 % of control
dose: 3.0 mg/kg/injection, schedule: Q04DX003 (ip), vehicle: water
  T/C: 107 % of control
dose: 4.0 mg/kg/injection, schedule: Q01DX009 (ip), vehicle: saline
  T/C: 100 % of control
dose: 4.0 mg/kg/injection, schedule: Q01DX009 (oral), vehicle: saline
  T/C: 100 % of control
dose: 4.0 mg/kg/injection, schedule: Q01DX009 (sc), vehicle: saline
  T/C: 104 % of control
dose: 5.0 mg/kg/injection, schedule: Q01DX001 (oral), vehicle: saline
  T/C: 100 % of control
dose: 6.0 mg/kg/injection, schedule: Q01DX001 (sc), vehicle: saline
  T/C: 100 % of control
dose: 8.0 mg/kg/injection, schedule: Q01DX009 (oral), vehicle: saline
  T/C: 100 % of control
dose: 10.0 mg/kg/injection, schedule: Q01DX001 (oral), vehicle: saline
  T/C: 100 % of control
dose: 12.0 mg/kg/injection, schedule: Q01DX001 (sc), vehicle: saline
  T/C: 100 % of control
dose: 16.0 mg/kg/injection, schedule: Q01DX009 (oral), vehicle: saline
  T/C: 100 % of control
dose: 20.0 mg/kg/injection, schedule: Q01DX001 (oral), vehicle: saline
  T/C: 100 % of control
dose: 40.0 mg/kg/injection, schedule: Q01DX001 (oral), vehicle: saline
  T/C: 100 % of control
dose: 7.0 micrograms/kg/injection, schedule: Q01DX010 (ip), vehicle: saline
  T/C: 110 % of control
dose: 15.0 micrograms/kg/injection, schedule: Q01DX010 (ip), vehicle: saline
  T/C: 90 % of control
dose: 30.0 micrograms/kg/injection, schedule: Q01DX010 (ip), vehicle: saline
  T/C: 110 % of control

## [N-]=[N+]=[N-]
dose: 2.5 mg/kg/injection, schedule: Q01DX009 (ip), vehicle: saline
  T/C: 90 % of control
dose: 5.0 mg/kg/injection, schedule: Q01DX009 (ip), vehicle: saline
  T/C: 90 % of control
dose: 5.0 mg/kg/injection, schedule: Q04DX003 (ip), vehicle: saline
  T/C: 112 % of control
dose: 10.0 mg/kg/injection, schedule: Q04DX003 (ip), vehicle: saline
  T/C: 95 % of control

## CC(=O)OC1CCC2(C)C(CCc3ccoc3)=C(C)C(=O)CC2C1(C)C (stereo unspecified)
dose: 10.0 mg/kg/injection, schedule: Q01DX009 (ip), vehicle: saline + alcohol
  T/C: 105 % of control
dose: 20.0 mg/kg/injection, schedule: Q01DX009 (ip), vehicle: saline + alcohol
  T/C: 115 % of control
dose: 40.0 mg/kg/injection, schedule: Q01DX009 (ip), vehicle: saline + alcohol
  T/C: 105 % of control

## COC(=O)C1CSC2(CCCN(Cc3ccccc3)C2)N1 (stereo unspecified)
dose: 50.0 mg/kg/injection, schedule: Q01DX009 (ip), vehicle: saline
  T/C: 113 % of control
[1]
  T/C: 119 % of control
[2]
  T/C: 96 % of control
